Source: PMC3742671, “Structure, Antimicrobial Activities and Mode of Interaction with Membranes of Bovel Phylloseptins from the Painted-Belly Leaf Frog, Phyllomedusa sauvagii” (PLoS ONE, 2013)
Where two headings read alike, the source gives them in different places. Ends that are not written are not given here.

Legend:
[1] = tested on: A. baumannii ATCC 19606; settings: LB medium (pH 7), absorbance at 630 nm; average of three independent experiments in triplicates
Procedure: (§1) The effect of phylloseptins-S was evaluated against several bacterial strains and yeasts (Table 2). Bacteria were cultured in Luria-Bertani broth (LB), whereas yeasts were cultured in Yeast Peptone Dextrose medium (YPD), and minimal inhibitory concentrations (MICs) were determined by measuring the absorbance at 630 nm in 96-well microtitration plates, as described previously. Leishmanicidal activity of phylloseptins-S was also examined against promastigotes of different Leishmania species: Leishmania infantum (strain MHOM/MA/67/ITMAP-263), L. major (MHOM/SU/73/5-ASKH) and L. braziliensis (MHOM/BR/75/M2904). Culture of promastigotes and determination of the growth inhibition were performed as previously described, [22], [23].
(§2) The antimicrobial activity of synthetic PLS-S1 to -S5 was assayed in LB medium (pH 7) against several Gram-negative and Gram-positive bacteria, and multi-drug resistant S. aureus strains. […] The antiparasitic activity of PLSs was also determined against three Leishmania species (L. infantum, L. major, and L. braziliensis). […] Because PLS-S3 contains histidines as basic residues and that approximately only 11% of these residues are positively charged at pH 7, we have evaluated the antibacterial activity at pH 5 at which His residues are predominantly positively charged (∼91%).

[2] = tested on: E. coli ATCC 25922; settings: for MIC: ATCC 25922, pH 7
Procedure: as §1, §2

[3] = tested on: E. coli ML-35p; settings: LB medium (pH 7), absorbance at 630 nm; average of three independent experiments in triplicates
Procedure: as §1, §2

[4] = tested on: E. faecalis ATCC 29212; settings: LB medium (pH 7), absorbance at 630 nm; average of three independent experiments in triplicates
Procedure: as §1, §2

[5] = tested on: K. pneumoniae ATCC 13883; settings: LB medium (pH 7), absorbance at 630 nm; average of three independent experiments in triplicates
Procedure: as §1, §2

[6] = tested on: P. aeruginosa ATCC 27853; settings: LB medium (pH 7), absorbance at 630 nm; average of three independent experiments in triplicates
Procedure: as §1, §2

[7] = tested on: S. aureus ATCC 25923; settings: LB medium (pH 7), absorbance at 630 nm, 96-well plates; average of three independent experiments in triplicates
Procedure: as §1, §2

[8] = tested on: S. aureus ATCC 43300; settings: strain resistant to methicillin and oxacillin; LB medium (pH 7), absorbance at 630 nm; average of three independent experiments in triplicates
Procedure: as §1, §2

[9] = tested on: S. aureus ATCC BAA-44; settings: multidrug resistant strain; LB medium (pH 7), absorbance at 630 nm; average of three independent experiments in triplicates
Procedure: as §1, §2

[10] = tested on: S. aureus ST1065; settings: LB medium (pH 7), absorbance at 630 nm; average of three independent experiments in triplicates
Procedure: as §1, §2

[11] = tested on: S. pyogenes ATCC 19615; settings: LB medium (pH 7), absorbance at 630 nm; average of three independent experiments in triplicates
Procedure: as §1, §2

[12] = tested on: C. parapsilosis ATCC 22019; format: cell-based
Procedure: as §1

[13] = tested on: L. braziliensis (MHOM/BR/75/M2904) promastigotes; format: cell-based
Procedure: as §1

[14] = tested on: L. major (MHOM/SU/73/5-ASKH) promastigotes; format: cell-based
Procedure: as §1

[15] = tested on: S. cerevisiae; format: cell-based
Procedure: as §1

[16] = tested on: Leishmania infantum (strain MHOM/MA/67/ITMAP-263) promastigotes; format: cell-based
Procedure: as §1
Figure 3 Activity of phylloseptins-S against Leishmania infantum promastigotes. IC50 values were determined from a dose-response inhibition fit using GraphPad Prism 5.0 (Table 2). Results represent the mean ± S.E.M. and are representative of three experiments carried out in triplicates.

[17] = tested on: human erythrocytes; format: cell-based
Procedure: (§3) Hemolytic assays were performed using fresh human erythrocytes from a healthy donor according to a previously described protocol. Cytotoxic activity of PLS-S was also determined on the human leukemia monocyte cell line THP-1. 80 µL of 6.25×10^5 cells/mL were incubated for 72 h with 20 µL of peptide (3 to 50 µM, final concentrations) at 37°C and 5% CO2 in RPMI medium supplemented with 10% FCS. The cell viability was determined by adding 10 µL of methylthiazolyldiphenyl-tetrazolium bromide (MTT, 10 mg/mL) to the plate. After 4h incubation at 37°C, formazan was solubilized with 100 µL of a solution containing 50% isopropanol and 10% SDS, and the absorbance was measured at 570 nm. The lytic concentration 50 (LC50), which correspond to the peptide concentration producing 50% lysis, was determined with the GraphPad Prism® 5.0 software. Results were expressed as the mean of three independent experiments performed in triplicates.

[18] = tested on: human leukemia monocyte cell line THP-1; experiment: Cytotoxic activity, MTT; format: cell-based; settings: for IC50: 72 h, 37°C, RPMI + 10% FCS, peptide 3 to 50 µM, MTT read at 570 nm, average of three independent experiments in triplicates; for LC50: value stated jointly for the three peptides
Procedure: as §3

[19] = Circular dichroism spectroscopy with DMPC/DMPG (3:1) large unilamellar vesicles; format: physicochemical; settings: CD, peptide 30 µM, DMPC/DMPG (3:1) LUVs 1 mg/mL in PBS pH 7.3
Procedure: The far-ultraviolet circular dichroism (CD) spectra were recorded as described. Phylloseptins-S (30 µM) were solubilized either in 80 mM sodium dodecyl sulfate (SDS) or in phosphate-buffered saline (PBS: 10 mM phosphate, pH 7.3) containing 1 mg/mL of large unilamellar vesicles (LUVs) of 1,2-dimyristoyl-sn-glycero-3-phosphocholine (DMPC) and 1,2-dimyristoyl-sn-glycero-3-phosphoglycerol (DMPG) (3∶1 mol/mol). DMPC and DMPG were purchased from Avanti Polar Lipids, Inc. Each spectrum was the average of four scans. CD measurements are reported as Δ/n, where Δ is the dichroic increment and n is the number of residues in the peptide.
Figure 6 Circular dichroism spectra of synthetic phylloseptins-S (30 µM). (A) DMPC/DMPG (3∶1) large unilamellar vesicles in PBS (1 mg/mL). (B) 80 mM SDS. CD measurements are reported as the dichroic increment (Δε) per residue.

With FLSLIPHIVSGVASIAKHF-NH2 [PLS-S1] the MIC [1] was 6.25 µM, the “MIC at pH 5” value ([2]; ATCC 25922, pH 5) was 12.5 µM and the MIC [2] was 70 µM. The MIC [3] was over 100 µM, the MIC [4] was 25 µM and the MIC [5] was over 100 µM. It also gave an MIC [6] of over 100 µM, an MIC [7] of 6.25 µM and an MIC [8] of 6.25 µM. It also gave an MIC [9] of 6.25 µM, an MIC [10] of 6.25 µM and an MIC [11] of 3.12 µM. It also gave an MIC [12] of 100 µM, an IC50 [13] of 15.3 µM and an IC50 [14] of 12.6 µM. The MIC [15] was 12.5 µM, the IC50 [16] was 16.5 µM and the “LC50 (peptide concentration producing 50% lysis)” value [17] was 39 µM. It also gave an IC50 [18] of 23 µM, an LC50 [18] of 23 µM and a helix content [19] of 70%.
For FLSMIPHIVSGVAALAKHL-NH2 [PLS-S4], the MIC [1] was 6.25 µM, the MIC [2] was 25 µM and the MIC [3] was 25 µM. It also gave an MIC [4] of 50 µM, an MIC [5] of 25 µM and an MIC [6] of 100 µM. For the same substance, the MIC [7] was 6.25 µM, the MIC [8] was 6.25 µM and the MIC [9] was 6.25 µM. For the same substance, the MIC [10] was 6.25 µM, the MIC [11] was 3.12 µM and the MIC [12] was 50 µM. The IC50 [13] was 17.2 µM, the IC50 [14] was 18 µM and the MIC [15] was 12.5 µM. The IC50 [16] was 22 µM, the “LC50 (peptide concentration producing 50% lysis)” value [17] was 33 µM and the IC50 [18] was 23 µM. It also gave an LC50 [18] of 23 µM and a helix content [19] of 68%.
In the case of FLSLIPHIVSGVASLAKHF-NH2 [PLS-S2], the MIC [1] is reported as 6.25 µM, the MIC [2] is reported as 25 µM and the MIC [3] is reported as 30 µM. The MIC [4] was 25 µM, the MIC [5] was 25 µM and the MIC [6] was 200 µM. The MIC [7] was 6.25 µM, the MIC [8] was 6.25 µM and the MIC [9] was 6.25 µM. For the same substance, the MIC [10] was 6.25 µM, the MIC [11] was 1.56 µM and the MIC [12] was 50 µM. It also gave an IC50 [13] of 15 µM, an IC50 [14] of 13.3 µM and an MIC ([15]; YPD medium, absorbance at 630 nm, average of three independent experiments in triplicates) of 6.25 µM. The IC50 [16] was 18.5 µM, the “LC50 (peptide concentration producing 50% lysis)” value [17] was 25 µM and the IC50 [18] was 22.5 µM. It also gave an LC50 [18] of 23 µM and a helix content [19] of 80%.
